For 3 compounds, EC50 results are on record in patent US10138233B2, “Imidazole compounds as modulators of FSHR and uses thereof” (Merck Patent GmbH, priority 2013, dated 2018).

The target in experiment [1] is T1, FSHR (Homo sapiens, UniProt P23945).
T1 construct: expressed in transfected cells; host or cells: CHO cells, clone Cho-FSHR-LUC-1-1-43
T1 sequence (P23945 18-695): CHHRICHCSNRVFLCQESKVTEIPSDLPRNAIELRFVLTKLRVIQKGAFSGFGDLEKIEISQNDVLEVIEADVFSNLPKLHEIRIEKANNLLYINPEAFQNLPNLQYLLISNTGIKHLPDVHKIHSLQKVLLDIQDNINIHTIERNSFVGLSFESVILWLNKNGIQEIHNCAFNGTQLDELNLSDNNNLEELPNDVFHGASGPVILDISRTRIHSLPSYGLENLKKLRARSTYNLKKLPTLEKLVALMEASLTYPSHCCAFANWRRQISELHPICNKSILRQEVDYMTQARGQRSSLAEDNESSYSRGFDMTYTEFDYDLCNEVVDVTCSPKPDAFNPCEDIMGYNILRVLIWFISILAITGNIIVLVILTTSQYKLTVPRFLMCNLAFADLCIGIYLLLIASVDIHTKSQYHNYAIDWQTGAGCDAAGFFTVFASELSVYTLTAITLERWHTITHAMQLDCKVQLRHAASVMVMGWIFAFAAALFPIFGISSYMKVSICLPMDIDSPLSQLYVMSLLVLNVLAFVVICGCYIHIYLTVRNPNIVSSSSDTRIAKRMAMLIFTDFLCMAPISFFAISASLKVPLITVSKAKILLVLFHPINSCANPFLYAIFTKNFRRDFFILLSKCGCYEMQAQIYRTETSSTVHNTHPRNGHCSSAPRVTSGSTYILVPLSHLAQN
Briefly: EC50 of cyclic AMP production in CHO FSHR cells + EC20 FSH (Assay A). In kind it is cell-based. The following applies: CHO-FSHR-LUC cells, in presence of EC20 FSH, cAMP HTRF, 1 h 37° C. A general note: Time-resolved FRET reads energy transfer from a long-lived donor to a nearby acceptor.

The target in experiment [2] is T2, follicle-stimulating hormone (FSH) receptor (Rattus norvegicus, UniProt P20395).
T2 construct: Rat Granulosa EC50 FSH (Assay B); endogenous in cells; host or cells: rat granulosa cells
T2 sequence (P20395 18-692): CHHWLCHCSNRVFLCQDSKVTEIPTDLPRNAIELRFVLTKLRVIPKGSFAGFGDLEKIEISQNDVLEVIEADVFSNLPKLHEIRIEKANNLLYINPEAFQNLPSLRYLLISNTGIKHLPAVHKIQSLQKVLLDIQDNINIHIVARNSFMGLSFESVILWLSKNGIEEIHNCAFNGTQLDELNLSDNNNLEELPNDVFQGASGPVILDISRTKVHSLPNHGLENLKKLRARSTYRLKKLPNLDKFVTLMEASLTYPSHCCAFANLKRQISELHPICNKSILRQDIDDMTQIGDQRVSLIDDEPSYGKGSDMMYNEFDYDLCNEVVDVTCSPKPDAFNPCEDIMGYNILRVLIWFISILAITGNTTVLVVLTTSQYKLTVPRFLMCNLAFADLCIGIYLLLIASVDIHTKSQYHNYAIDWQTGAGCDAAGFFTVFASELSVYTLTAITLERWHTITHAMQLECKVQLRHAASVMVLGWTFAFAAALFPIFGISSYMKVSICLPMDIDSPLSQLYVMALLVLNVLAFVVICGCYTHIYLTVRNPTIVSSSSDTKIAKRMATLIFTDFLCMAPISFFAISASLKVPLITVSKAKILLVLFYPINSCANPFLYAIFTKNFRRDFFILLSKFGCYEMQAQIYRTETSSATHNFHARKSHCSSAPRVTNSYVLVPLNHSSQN
Briefly: Rat Granulosa EC50 FSH (Assay B). The format is cell-based. The following applies: rat granulosa cells, per Yanofsky et al. 2006.

Take `COc1cc2c(cc1-c1ccn(C)c1)-n1c(-c3cccs3)nc(C(=O)N3CCOCC3(C)C)c1CC2` [Compound 143, (3,3-Dimethyl-morpholin-4-yl)-[7-methoxy-8-(1-methyl-1H-pyrrol-3-yl)-1-thiophen-2-yl-4,5-dihydro-imidazo[1,5-a]quinolin-3-yl]-methanone]: the EC50 in experiment [1] was less than 100 nM; in experiment [2], greater than 5000 nM.
The matching figures for `COc1cc2c(cc1-c1ccn(C)n1)-n1c(-c3cccc(Cl)c3)nc(C(=O)N3CCOCC3(C)C)c1CC2` [Compound 148, (1-(3-chlorophenyl)-7-methoxy-8-(1-methyl-1H-pyrazol-3-yl)-4,5-dihydroimidazo[1,5-a]quinolin-3-yl)(3,3-dimethylmorpholino)methanone]: 100 to 1000 nM and 1000 to 5000 nM.
For the compound `[2H]C([2H])([2H])n1cc(-c2cc3c(cc2OC)CCc2c(C(=O)N4CCOCC4(C)C)nc(-c4cccn4C)n2-3)cn1` [Compound 149, (3,3-dimethylmorpholino)(7-methoxy-8-(1-methyl-1H pyrazol-4-yl)-1-(1-methyl-1H-pyrrol-2-yl)-4,5-dihydroimidazo[1,5-a]quinolin-3-yl)methanone], the EC50 is less than 100 nM in experiment [1] and 1000 to 5000 nM in experiment [2].

What is called EC50 is the concentration giving half of the maximal effect.
